Source: patent US9388139B2, “Derivatives of celeboxib, use thereof and preparation thereof” (German University, priority 2011, dated 2016)

Legend:
SK-MEL-2 = assay: Tumor cell growth inhibition panel; type: cell-based; conditions: Homo sapiens, Melanoma
Procedure: (§1) Thus, compound 12 is able to show broad spectrum tumor cell growth inhibitory activity independent of cyclooxygenase inhibition, whereas PDE5 may be the major contributor to such activity.
(§2) The human tumor cell lines were purchased from the American Type Culture Collection (Mansassas, Va.) and maintained in RPMI-1640+2.0 g/L glucose pH 7.4+5% FBS+4 mM glutamine (complete growth medium), incubated at 37° C. in 5% CO2, and passaged at subconfluent density. The human fetal colon FHC cells were cultured in DMEM:F12 medium supplemented with 10% FBS, cholera toxin (10 ng/mL), 5 μg/ml transferrin, 5 μg/ml insulin, and 100 ng/ml hydrocortisone. The passage number was routinely limited to approximately 20 and morphology monitored with each passage, but no additional authentication of the cell lines was performed.
(§3) Cells were plated in 96-well microtiter plates at a density of 5,000 cells per well and allowed to adhere overnight prior to treatment. Cells were treated with a 2-log concentration range of either SS or SBA and incubated for an additional 72 hours. For siRNA assays, cells were transfected in OptiMEM media with 0.5% SureFECT transfection reagent and 200 nmol/L of either negative control or PDE5 siRNA and incubated at 37° C. for 24 h prior to treatment. At the end of the incubation period, relative cell viability was compared to vehicle controls using the Cell Titer Glo Assay (Promega, Madison Wis.), which measures viable cells based on ATP content, according to the manufacturer's specifications.

MCF-7 = assay: Tumor cell growth inhibition panel; type: cell-based; conditions: Homo sapiens, MCF7, Breast
Procedure: as §1, §2, §3

NCI-H226 = assay: Tumor cell growth inhibition panel; type: cell-based; conditions: Homo sapiens, Lung
Procedure: as §1, §2, §3

UACC-62 = assay: Tumor cell growth inhibition panel; type: cell-based; conditions: Homo sapiens, Melanoma
Procedure: as §1, §2, §3

MDA-MB-468 = assay: Tumor cell growth inhibition panel; type: cell-based; conditions: Homo sapiens, Breast
Procedure: as §1, §2, §3

SK-MEL-28 = assay: Tumor cell growth inhibition panel; type: cell-based; conditions: Homo sapiens, Melanoma
Procedure: as §1, §2, §3

SN12C = assay: Tumor cell growth inhibition panel; type: cell-based; conditions: Homo sapiens, Renal
Procedure: as §1, §2, §3

DU-145 = assay: Tumor cell growth inhibition panel; type: cell-based; conditions: Homo sapiens, Prostate
Procedure: as §1, §2, §3

MDA-MB-231 = assay: Tumor cell growth inhibition panel; type: cell-based; conditions: Homo sapiens, Breast
Procedure: as §1, §2, §3

SW-620 = assay: Tumor cell growth inhibition panel; type: cell-based; conditions: Homo sapiens, Colon
Procedure: as §1, §2, §3

ACHN = assay: Tumor cell growth inhibition panel; type: cell-based; conditions: Homo sapiens, Renal
Procedure: as §1, §2, §3

SNB-19 = assay: Tumor cell growth inhibition panel; type: cell-based; conditions: Homo sapiens, CNS
Procedure: as §1, §2, §3

OVCAR-8 = assay: Tumor cell growth inhibition panel; type: cell-based; conditions: Homo sapiens, Ovarian
Procedure: as §1, §2, §3

HL-60 (TB) = assay: Tumor cell growth inhibition panel; type: cell-based; conditions: Homo sapiens, Hematopoietic
Procedure: as §1, §2, §3

K562 = assay: Tumor cell growth inhibition panel; type: cell-based; conditions: Homo sapiens, Hematopoietic
Procedure: as §1, §2, §3

HOP-62 = assay: Tumor cell growth inhibition panel; type: cell-based; conditions: Homo sapiens, Lung
Procedure: as §1, §2, §3

PC-3 = assay: Tumor cell growth inhibition panel; type: cell-based; conditions: Homo sapiens, Prostate
Procedure: as §1, §2, §3

SNB-75 = assay: Tumor cell growth inhibition panel; type: cell-based; conditions: Homo sapiens, CNS
Procedure: as §1, §2, §3

OVCAR-4 = assay: Tumor cell growth inhibition panel; type: cell-based; conditions: Homo sapiens, Ovarian
Procedure: as §1, §2, §3

KM12 = assay: Tumor cell growth inhibition panel; type: cell-based; conditions: Homo sapiens, Colon
Procedure: as §1, §2, §3

UACC-257 = assay: Tumor cell growth inhibition panel; type: cell-based; conditions: Homo sapiens, Melanoma
Procedure: as §1, §2, §3

U251 = assay: Tumor cell growth inhibition panel; type: cell-based; conditions: Homo sapiens, U-251, CNS
Procedure: as §1, §2, §3

SR = assay: Tumor cell growth inhibition panel; type: cell-based; conditions: Homo sapiens, Hematopoietic
Procedure: as §1, §2, §3

CCFR-CEM = assay: Tumor cell growth inhibition panel; type: cell-based; conditions: Homo sapiens, Hematopoietic
Procedure: as §1, §2, §3

SF-268 = assay: Tumor cell growth inhibition panel; type: cell-based; conditions: Homo sapiens, CNS
Procedure: as §1, §2, §3

HCT-15 = assay: Tumor cell growth inhibition panel; type: cell-based; conditions: Homo sapiens, Colon
Procedure: as §1, §2, §3

MOLT-4 = assay: Tumor cell growth inhibition panel; type: cell-based; conditions: Homo sapiens, Hematopoietic
Procedure: as §1, §2, §3

NCI-H522 = assay: Tumor cell growth inhibition panel; type: cell-based; conditions: Homo sapiens, Lung
Procedure: as §1, §2, §3

NCI-H322M = assay: Tumor cell growth inhibition panel; type: cell-based; conditions: Homo sapiens, Lung
Procedure: as §1, §2, §3

RPMI-8226 = assay: Tumor cell growth inhibition panel; type: cell-based; conditions: Homo sapiens, Hematopoietic
Procedure: as §1, §2, §3

BT-549 = assay: Tumor cell growth inhibition panel; type: cell-based; conditions: Homo sapiens, Breast
Procedure: as §1, §2, §3

LOX IMV1 = assay: Tumor cell growth inhibition panel; type: cell-based; conditions: Homo sapiens, Melanoma
Procedure: as §1, §2, §3

PDE3A = PDE3A (Homo sapiens (Human), UniProt Q14432); assay: PDE isozyme selectivity, IMAP assay; type: biochemical
Procedure: (§4) PDE activity was measured using the IMAP fluorescence polarization assay (Molecular Devices) in which binding of hydrolyzed cyclic nucleotide substrate to immobilized metal coordination complexes increases fluorescence polarization (FP). Tetramethylrhodamine (TAMRA)-cGMP and fluorescein-cAMP were used as substrates, each at final concentration of 50 nmol/L. The PDE assay was done according to the manufacturer's specifications using either whole cell lysates or recombinant enzymes. FP was measured at excitation, emission wavelengths of either 530,590 nm for TAMRA-cGMP or 485,530 nm for fluorescein-cAMP using a Synergy4 (Biotek) microplate reader.

PDE10 = PDE10 (Homo sapiens (Human), UniProt Q9Y233); assay: PDE isozyme selectivity, IMAP assay; type: biochemical
Procedure: as §4

PDE11 = PDE11 (Homo sapiens (Human), UniProt Q9HCR9); assay: PDE isozyme selectivity, IMAP assay; type: biochemical
Procedure: as §4

PDE1A = PDE1A (Homo sapiens (Human), UniProt P54750); assay: PDE isozyme selectivity, IMAP assay; type: biochemical
Procedure: as §4

PDE9A = PDE9A (Homo sapiens (Human), UniProt O76083); assay: PDE isozyme selectivity, IMAP assay; type: biochemical; conditions: substrate cGMP
Procedure: as §4

Chain of PDE1A (P54750 whole entry, species assumed): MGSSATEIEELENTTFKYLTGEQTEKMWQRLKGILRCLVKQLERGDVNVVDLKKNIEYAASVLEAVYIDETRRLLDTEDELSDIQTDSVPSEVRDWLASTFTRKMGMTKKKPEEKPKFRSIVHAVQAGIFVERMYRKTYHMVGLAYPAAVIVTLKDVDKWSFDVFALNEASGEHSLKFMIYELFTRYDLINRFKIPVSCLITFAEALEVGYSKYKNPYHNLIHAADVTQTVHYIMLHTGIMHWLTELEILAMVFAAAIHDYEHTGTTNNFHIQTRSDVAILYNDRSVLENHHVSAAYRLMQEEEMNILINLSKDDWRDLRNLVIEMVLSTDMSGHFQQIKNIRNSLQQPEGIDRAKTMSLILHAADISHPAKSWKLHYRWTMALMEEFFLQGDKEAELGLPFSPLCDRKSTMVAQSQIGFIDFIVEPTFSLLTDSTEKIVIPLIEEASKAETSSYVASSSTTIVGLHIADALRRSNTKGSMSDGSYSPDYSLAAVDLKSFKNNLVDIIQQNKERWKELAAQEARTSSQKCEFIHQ
Chain of PDE11 (Q9HCR9 whole entry): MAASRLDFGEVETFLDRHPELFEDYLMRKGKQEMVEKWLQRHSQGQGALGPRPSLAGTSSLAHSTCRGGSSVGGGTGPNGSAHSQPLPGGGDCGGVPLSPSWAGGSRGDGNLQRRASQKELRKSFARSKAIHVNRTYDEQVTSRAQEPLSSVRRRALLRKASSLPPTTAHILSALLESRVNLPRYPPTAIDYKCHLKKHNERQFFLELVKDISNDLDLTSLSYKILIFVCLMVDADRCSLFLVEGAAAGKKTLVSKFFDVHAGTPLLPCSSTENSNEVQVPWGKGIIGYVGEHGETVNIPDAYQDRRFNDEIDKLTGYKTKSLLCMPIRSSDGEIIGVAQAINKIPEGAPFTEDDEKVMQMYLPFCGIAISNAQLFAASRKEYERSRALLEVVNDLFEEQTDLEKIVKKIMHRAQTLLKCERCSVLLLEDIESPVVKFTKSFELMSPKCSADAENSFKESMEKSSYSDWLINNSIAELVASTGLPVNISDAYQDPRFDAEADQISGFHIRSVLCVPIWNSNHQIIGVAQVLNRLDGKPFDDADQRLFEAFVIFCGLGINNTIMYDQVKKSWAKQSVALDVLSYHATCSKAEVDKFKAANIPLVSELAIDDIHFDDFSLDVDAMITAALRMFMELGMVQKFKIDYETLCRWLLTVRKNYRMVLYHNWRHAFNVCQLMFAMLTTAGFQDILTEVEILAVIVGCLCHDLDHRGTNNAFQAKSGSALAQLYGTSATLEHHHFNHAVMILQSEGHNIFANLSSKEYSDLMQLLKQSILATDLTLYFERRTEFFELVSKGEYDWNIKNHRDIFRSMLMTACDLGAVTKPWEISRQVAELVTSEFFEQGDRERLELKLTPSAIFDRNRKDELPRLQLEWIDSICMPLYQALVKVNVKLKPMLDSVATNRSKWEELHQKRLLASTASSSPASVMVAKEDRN
Chain of PDE10 (Q9Y233 whole entry): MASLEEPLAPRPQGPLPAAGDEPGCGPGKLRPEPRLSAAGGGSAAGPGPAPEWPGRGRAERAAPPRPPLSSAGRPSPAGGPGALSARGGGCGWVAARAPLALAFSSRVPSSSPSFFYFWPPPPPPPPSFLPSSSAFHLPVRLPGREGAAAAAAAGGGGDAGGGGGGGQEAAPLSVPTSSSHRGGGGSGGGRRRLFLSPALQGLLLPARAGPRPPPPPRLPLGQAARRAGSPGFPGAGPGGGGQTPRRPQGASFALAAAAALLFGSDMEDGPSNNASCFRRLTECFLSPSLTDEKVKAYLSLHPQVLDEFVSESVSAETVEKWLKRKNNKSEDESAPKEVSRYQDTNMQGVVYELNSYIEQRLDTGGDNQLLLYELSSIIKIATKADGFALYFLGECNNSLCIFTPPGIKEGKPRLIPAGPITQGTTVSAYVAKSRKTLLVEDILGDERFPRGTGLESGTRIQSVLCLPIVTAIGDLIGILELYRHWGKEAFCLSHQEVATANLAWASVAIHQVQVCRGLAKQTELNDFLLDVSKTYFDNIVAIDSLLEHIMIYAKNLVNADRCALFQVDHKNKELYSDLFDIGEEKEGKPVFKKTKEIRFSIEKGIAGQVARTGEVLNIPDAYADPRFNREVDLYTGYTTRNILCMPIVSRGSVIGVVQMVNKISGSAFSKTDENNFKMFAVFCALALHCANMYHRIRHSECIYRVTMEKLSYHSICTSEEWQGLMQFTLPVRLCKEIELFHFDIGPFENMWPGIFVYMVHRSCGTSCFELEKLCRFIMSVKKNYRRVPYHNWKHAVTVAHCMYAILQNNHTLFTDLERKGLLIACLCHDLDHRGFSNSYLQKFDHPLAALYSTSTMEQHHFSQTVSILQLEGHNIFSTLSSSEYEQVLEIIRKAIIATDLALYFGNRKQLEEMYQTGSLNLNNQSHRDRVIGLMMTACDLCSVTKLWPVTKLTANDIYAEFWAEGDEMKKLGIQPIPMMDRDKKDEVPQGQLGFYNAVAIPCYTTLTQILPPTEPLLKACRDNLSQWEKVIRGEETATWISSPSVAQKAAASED
Chain of PDE3A (Q14432 whole entry, species assumed): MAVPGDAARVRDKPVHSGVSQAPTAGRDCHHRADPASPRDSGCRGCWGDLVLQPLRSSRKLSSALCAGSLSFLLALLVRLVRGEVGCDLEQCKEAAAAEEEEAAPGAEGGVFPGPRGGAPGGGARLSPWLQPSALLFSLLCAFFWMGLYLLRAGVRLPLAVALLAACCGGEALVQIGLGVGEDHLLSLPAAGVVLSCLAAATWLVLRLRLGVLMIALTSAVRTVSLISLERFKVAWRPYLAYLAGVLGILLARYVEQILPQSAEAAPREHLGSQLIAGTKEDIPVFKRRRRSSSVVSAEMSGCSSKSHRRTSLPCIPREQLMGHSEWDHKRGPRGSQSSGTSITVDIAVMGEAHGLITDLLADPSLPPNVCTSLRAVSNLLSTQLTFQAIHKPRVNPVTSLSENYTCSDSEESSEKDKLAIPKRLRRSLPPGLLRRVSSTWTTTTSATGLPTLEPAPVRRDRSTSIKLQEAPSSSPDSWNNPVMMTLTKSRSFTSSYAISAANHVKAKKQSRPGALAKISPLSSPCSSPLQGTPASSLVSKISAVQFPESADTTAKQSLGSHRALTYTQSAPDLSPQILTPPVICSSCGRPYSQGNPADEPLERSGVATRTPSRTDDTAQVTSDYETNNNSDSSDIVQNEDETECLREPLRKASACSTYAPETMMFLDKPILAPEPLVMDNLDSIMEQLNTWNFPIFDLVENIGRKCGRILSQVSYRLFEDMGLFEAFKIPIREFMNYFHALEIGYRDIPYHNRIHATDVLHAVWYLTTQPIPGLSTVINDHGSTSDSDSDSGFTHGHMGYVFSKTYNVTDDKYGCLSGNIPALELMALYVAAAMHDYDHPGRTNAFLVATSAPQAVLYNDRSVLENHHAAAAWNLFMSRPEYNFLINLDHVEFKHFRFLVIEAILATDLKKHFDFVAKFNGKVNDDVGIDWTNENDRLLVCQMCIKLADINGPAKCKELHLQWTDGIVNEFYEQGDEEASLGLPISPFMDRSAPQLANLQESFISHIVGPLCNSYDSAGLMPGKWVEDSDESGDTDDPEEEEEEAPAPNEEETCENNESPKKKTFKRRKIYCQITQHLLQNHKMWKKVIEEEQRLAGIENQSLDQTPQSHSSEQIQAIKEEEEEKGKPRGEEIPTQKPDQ
Chain of PDE9A (O76083 whole entry, species assumed): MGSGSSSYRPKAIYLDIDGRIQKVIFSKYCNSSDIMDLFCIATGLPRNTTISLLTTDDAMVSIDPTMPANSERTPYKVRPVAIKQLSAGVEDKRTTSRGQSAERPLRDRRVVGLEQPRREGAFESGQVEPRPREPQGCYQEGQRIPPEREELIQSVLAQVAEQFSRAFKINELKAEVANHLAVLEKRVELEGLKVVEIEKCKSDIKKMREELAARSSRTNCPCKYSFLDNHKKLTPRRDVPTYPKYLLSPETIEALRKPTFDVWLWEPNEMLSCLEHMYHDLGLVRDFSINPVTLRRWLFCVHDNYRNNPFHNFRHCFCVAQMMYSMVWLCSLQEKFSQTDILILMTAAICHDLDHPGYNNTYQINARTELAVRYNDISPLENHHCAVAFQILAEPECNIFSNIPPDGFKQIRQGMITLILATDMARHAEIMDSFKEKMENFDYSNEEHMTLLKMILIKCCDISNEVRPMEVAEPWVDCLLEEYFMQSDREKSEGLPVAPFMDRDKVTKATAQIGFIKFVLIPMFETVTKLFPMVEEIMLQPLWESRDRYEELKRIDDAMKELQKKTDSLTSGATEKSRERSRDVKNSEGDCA

Compound: CC(C)(C)C1=NN(c2ccc(C(=O)O)cc2)C(c2ccc(Cl)cc2Cl)C1 (centres unmarked) [Compound 12, 4-(3-(tert-Butyl)-5-(2,4-dichlorophenyl)-4,5-dihydro-1H-pyrazol-1-yl)benzoic acid]
- IC50 (SK-MEL-2): 44.5 µM
- IC50 (MCF-7): 52.4 µM
- IC50 (NCI-H226): 56.4 µM
- IC50 (UACC-62): 42.3 µM
- IC50 (MDA-MB-468): 58.5 µM
- IC50 (SK-MEL-28): 72.4 µM
- IC50 (SN12C): 50 µM
- IC50 (DU-145): 59.6 µM
- IC50 (MDA-MB-231): 64.4 µM
- IC50 (SW-620): 51.8 µM
- IC50 (ACHN): 55.3 µM
- IC50 (SNB-19): 52.8 µM
- IC50 (OVCAR-8): 45.8 µM
- IC50 (HL-60 (TB)): 34.5 µM
- IC50 (K562): 33.2 µM
- IC50 (HOP-62): 37.4 µM
- IC50 (PC-3): 55.1 µM
- IC50 (SNB-75): 67.8 µM
- IC50 (OVCAR-4): 54.9 µM
- IC50 (KM12): 34.7 µM
- IC50 (UACC-257): 70 µM
- IC50 (U251): 33.3 µM
- IC50 (SR): 43 µM
- IC50 (CCFR-CEM): 33.1 µM
- IC50 (SF-268): 41.1 µM
- IC50 (HCT-15): 40.3 µM
- IC50 (MOLT-4): 20.7 µM
- IC50 (NCI-H522): 50.4 µM
- IC50 (NCI-H322M): 49.8 µM
- IC50 (RPMI-8226): 23.2 µM
- IC50 (BT-549): 54.7 µM
- IC50 (LOX IMV1): 50.5 µM
- IC50 (PDE3A; substrate cAMP): > 50 µM
- IC50 (PDE3A; substrate cGMP): > 50 µM
- IC50 (PDE10; PDE10, substrate cAMP): > 50 µM
- IC50 (PDE10; PDE10, substrate cGMP): > 50 µM
- IC50 (PDE11; PDE11, substrate cAMP): > 50 µM
- IC50 (PDE11; PDE11, substrate cGMP): > 50 µM
- IC50 (PDE1A; substrate cAMP): > 50 µM
- IC50 (PDE1A; substrate cGMP): > 50 µM
- IC50 (PDE9A): > 50 µM
